Source: ChEMBL document CHEMBL1128198, “New drug developments for opportunistic infections in immunosuppressed patients: Pneumocystis carinii” (J Med Chem, 1995)
pIC50, pKi: −log10 of the molar value.

How the values were obtained:
[1] = target: T1, Dihydrofolate reductase (Pneumocystis carinii, UniProt P16184)
T1 sequence (P16184 whole entry): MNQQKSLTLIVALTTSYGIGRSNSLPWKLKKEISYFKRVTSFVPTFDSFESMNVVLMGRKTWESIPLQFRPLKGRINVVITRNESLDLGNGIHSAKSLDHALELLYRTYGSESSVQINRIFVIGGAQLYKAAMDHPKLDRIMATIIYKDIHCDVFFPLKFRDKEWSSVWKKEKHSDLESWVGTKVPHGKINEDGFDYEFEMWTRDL
Description: Inhibitory activity against dihydrofolate reductase in Pneumocystis carinii at 37 centigrade.

[2] = Ratio for IC50 of mammalian DHFR to IC50 of Pneumocystis carinii DHFR
[3] = target: T1, Dihydrofolate reductase; remark: listed apart in the source
Description: Binding affinity was reported with purified recombinant Pneumocystis carinii Dihydrofolate reductase

[4] = species on record: Rattus norvegicus; experiment: Toxicity was reported in rat.; format: organism-based; conditions: in vivo
[5] = system: Rattus norvegicus; experiment: Evaluated for effectiveness at 10 mg/kg reported as relative to pentamidine in rat; format: functional
[6] = target: T1, Dihydrofolate reductase; remark: listed apart in the source
Description: Inhibitory activity was determined against dihydrofolate reductase in Pneumocystis carinii.

[7] = target: T1, Dihydrofolate reductase; remark: listed apart in the source
[8] = target: T2, Dihydrofolate reductase (Rattus norvegicus, UniProt Q920D2); experiment: Inhibitory activity against dihydrofolate reductase in rat liver.
T2 sequence (Q920D2 whole entry): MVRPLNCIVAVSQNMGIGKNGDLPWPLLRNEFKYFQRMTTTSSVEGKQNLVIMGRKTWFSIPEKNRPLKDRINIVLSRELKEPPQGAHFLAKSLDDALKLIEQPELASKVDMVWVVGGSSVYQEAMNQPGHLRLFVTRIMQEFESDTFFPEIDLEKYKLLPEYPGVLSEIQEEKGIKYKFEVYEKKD

[9] = system: Pneumocystis carinii; experiment: Toxicity in Pneumocystis carinii Strong activity; format: organism-based; conditions: in vivo
[10] = system: Pneumocystis carinii; experiment: Pneumocystis carinii cysts per gram of lung tissue was determined in Pneumocystis carinii expressed as perscent of saline treated- control; format: functional; design: concentration or dose not given beside the values
[11] = system: Pneumocystis carinii; experiment: Minimal effective concentration inhibiting growth of Pneumocystis carinii was reported.; format: functional; conditions: read-out: MEC
[12] = species on record: Rattus norvegicus; experiment: toxicity was reported in rat.; format: organism-based; conditions: in vivo
[13] = species on record: Rattus norvegicus; experiment: Toxicity was reported in rat; Toxic,; format: organism-based; conditions: in vivo
[14] = species on record: Rattus norvegicus; experiment: Toxicity was reported in rat; Toxic; format: organism-based; conditions: in vivo
[15] = target: T2, Dihydrofolate reductase; experiment: Inhibitory activity against dihydrofolate reductase in rat.
[16] = Inhibitory activity of Pneumocystis carinii growth culture.

CCOc1cc(Cc2cnc(N)nc2N)cc(OCC)c1-n1cccc1 [EPIROPRIM]
pIC50 [1]: 5.52 | Selectivity [2]: 44 | pKi [3]: 8.47

N=C(N)c1cccc(OCCCCOc2cccc(C(=N)N)c2)c1
Toxicity [4]: 0 | Effectiveness [5]: 0.6

N=C(N)c1cc(N)cc(OCCCCOc2cc(C(=N)N)ccc2N)c1
Toxicity [4]: 0 | Effectiveness [5]: 1.1

CN(Cc1cnc2nc(N)nc(N)c2n1)c1ccc(C(=O)NC(CCC(=O)NC(CCC(=O)NC(CCC(=O)NC(CCC(=O)O)C(=O)O)C(=O)O)C(=O)O)C(=O)O)cc1 (stereo not drawn)
pIC50 [6]: 7.46

Cc1cc(NS(=O)(=O)c2ccc(N)cc2)no1 [SULFAMETHOXAZOLE]
pIC50 [7]: 7.00

CC1(C)N=C(N)N=C(N)N1c1ccc(Cl)cc1 [CYCLOGUANIL]
pIC50 [1]: 6.35 | pIC50 [8]: 6.96 | pKi [3]: 7.63

Nc1cc(N)c2nc(CSc3ccccc3)cnc2c1
pIC50 [6]: 5.02

Nc1nc(N)c2cc(Sc3cccc(C(F)(F)F)c3)sc2n1
pIC50 [6]: 3.92

CCc1nc(N)nc(N)c1-c1ccc(Cl)c([N+]#N)c1
pIC50 [6]: 6.72

c1cc2[nH]c(CCCCc3nc4cc(C5=NCCN5)ccc4[nH]3)nc2cc1C1=NCCN1
Toxicity [9]: Strong activity | Lung cyst count, % of saline control [10]: 0.1%

COc1cc(NC(C)CCCN)c2nccc(C)c2c1 (stereo not drawn)
minimal effective concentration [11]: 0.02 µM

COc1cc(C)c2c(Oc3cccc(C(F)(F)F)c3)c(OC)cc(NC(C)CCCN)c2n1 (stereo not drawn) [TAFENOQUINE]
minimal effective concentration [11]: 0.2 µM

COc1cc(NCCCCC(C)N)c2nccc(C)c2c1 (stereo not drawn)
minimal effective concentration [11]: 0.2 µM

CN(Cc1cnc2cc(N)cc(N)c2n1)c1ccc(C(=O)NC(CCC(=O)O)C(=O)O)c2ccccc12 (stereo not drawn)
pIC50 [6]: 6.72

COCCOc1c(OC)cc(Cc2cnc(N)nc2N)cc1OC [TETROXOPRIM]
pIC50 [1]: < 4.20

N=C(N)c1ccc2[nH]c(CCCc3nc4cc(C(=N)N)ccc4[nH]3)nc2c1
Lung cyst count, % of saline control [10]: 32%

N=C(N)c1ccc2[nH]c(/C=C/c3nc4cc(C(=N)N)ccc4[nH]3)nc2c1
Lung cyst count, % of saline control [10]: 3%

CCCCCCOc1c(OC)cc(NC(C)CCCN)c2nccc(C)c12 (stereo not drawn) [WR-242511]
minimal effective concentration [11]: 0.2 µM

COc1cc(C2=NCCN2)ccc1OCCCOc1ccc(C2=NCCN2)cc1
Toxicity [4]: 0 | Effectiveness [5]: 1.3

c1cc(C2=NCCN2)ccc1OCOc1ccc(C2=NCCN2)cc1
Toxicity [4]: 0 | Effectiveness [5]: 2.4

COc1cc(NC(C)CCCN)c2nccc(C)c2c1Oc1cccc(C(F)(F)F)c1 (stereo not drawn)
minimal effective concentration [11]: 0.2 µM

N=C(N)c1ccc(OCCCCOc2ccc(C(=N)N)cc2)cc1
Effectiveness [5]: 2.2 | Toxicity [12]: 0

c1cc2[nH]c(CCCc3nc4cc(C5=NCCN5)ccc4[nH]3)nc2cc1C1=NCCN1
Lung cyst count, % of saline control [10]: 4%

CCc1nc(N)nc(N)c1-c1ccc(Cl)c(NCN(C)C)c1
pIC50 [6]: 4.97

COc1cc(Cn2ccc3c4c(N)nc(N)nc4nc(O)c32)cc(OC)c1OC
pIC50 [6]: 5.51

c1cc(OCCOc2cccc(C3=NCCN3)c2)cc(C2=NCCN2)c1
Toxicity [4]: Toxic | Effectiveness [5]: 0.6

COc1cc(NC(C)CCCN)c2ncccc2c1 (stereo not drawn) [PRIMAQUINE]
minimal effective concentration [11]: 0.02 µM

Nc1nc(N)c2c(ncc3c2ccn3Cc2ccc(Cl)cc2Cl)n1
pIC50 [6]: 8.22

COc1ccc(C2=NCCN2)cc1OCCCCOc1cccc(C2=NCCN2)c1
Toxicity [13]: Toxic | Effectiveness [5]: 1.7

N=C(N)c1ccc2[nH]c(CCc3nc4cc(C(=N)N)ccc4[nH]3)nc2c1
Lung cyst count, % of saline control [10]: 1%

N=C(N)c1ccc(OCCCCCOc2ccc(C(=N)N)cc2)cc1 [PENTAMIDINE]
Toxicity [13]: Toxic | Effectiveness [5]: 1

COc1cc(OCCCCOc2cc(C(=N)N)ccc2OC)cc(C(=N)N)c1
Toxicity [4]: 0 | Effectiveness [5]: 1.2

N=C(N)c1cccc(OCOc2cccc(C(=N)N)c2)c1
Toxicity [4]: 0 | Effectiveness [5]: 0.7

COc1cc(NC(C)CCCN)c2nc(C)ccc2c1 (stereo not drawn)
minimal effective concentration [11]: 0.03 µM

N=C(N)c1ccc(OCOc2ccc(C(=N)N)cc2N)c(N)c1
Toxicity [4]: 0 | Effectiveness [5]: 1.1

CCN(CC)CCCCCCNc1cc(OC)cc2c(C)ccnc12 [SITAMAQUINE]
minimal effective concentration [11]: 2.3 µM

N=C(N)c1ccc(OCCCOc2ccc(C(=N)N)cc2)cc1 [PROPAMIDINE]
Effectiveness [5]: 1.2 | Toxicity [14]: Toxic

Nc1ccc(S(=O)(=O)c2ccc(N)cc2)cc1 [DAPSONE]
pIC50 [6]: 5.82

CCN=NNc1cc(-c2c(N)nc(N)nc2CC)ccc1Cl
pIC50 [15]: 4.72 | pIC50 [16]: 5.26 | pIC50 [6]: 5.55

COc1ccc(OC)c(CCc2sc3nc(N)nc(N)c3c2C)c1
pIC50 [6]: 5.92

N=C(N)c1ccc2[nH]c(CCCCc3nc4cc(C(=N)N)ccc4[nH]3)nc2c1
Toxicity [9]: Strong activity | Lung cyst count, % of saline control [10]: 0.3%

COc1cc(C(=N)N)ccc1OCOc1ccc(C(=N)N)cc1OC
Toxicity [4]: 0 | Effectiveness [5]: 1.8
